The source made the active and inactive calls. The calls are words filed in the database; no cut-off is given here.
Assays:
[1] = test system: Bursaphelenchus xylophilus; assay: (§1) Nematicidal activity against Bursaphelenchus xylophilus in pot-grown three-year-old trees of Pinus densiflora assessed as reduction of disease incidence at 3.6 mg/seedlings treated 7 days before inoculation measured after 1 month by measuring dead seedling under greenhouse condition relative to control; type: functional; design: scale not given: the % may be the effect or the level left
[2] = test system: Bursaphelenchus xylophilus; assay: Nematicidal activity against Bursaphelenchus xylophilus in pot-grown three-year-old trees of Pinus densiflora assessed as reduction of disease incidence at 2% treated 3 months before inoculation measured after 9 months by measuring dead trees; type: functional; design: scale not given: the % may be the effect or the level left
[3] = test system: Bursaphelenchus xylophilus; assay: Nematicidal activity against Bursaphelenchus xylophilus in pot-grown three-year-old trees of Pinus densiflora assessed as reduction of disease incidence at 2% treated 3 months before inoculation measured after 9 months by measuring dead trees relative to control; type: functional; design: scale not given: the % may be the effect or the level left
[4] = test system: Bursaphelenchus xylophilus; assay: Nematicidal activity against Bursaphelenchus xylophilus assessed as mortality at 0.34 mg/l after 48 hr; type: functional
[5] = test system: Bursaphelenchus xylophilus; assay: Nematicidal activity against Bursaphelenchus xylophilus in pot-grown three-year-old trees of Pinus densiflora assessed as reduction of disease incidence at 3.6 mg/seedlings treated 7 days before inoculation measured after 1 month by measuring dead seedling under greenhouse condition; type: functional; design: scale not given: the % may be the effect or the level left
Serratia marcescens = assay: Antibacterial activity against Serratia marcescens subsp. marcescens KRICT4 at 1.6 mg/l after 24 hr; type: functional, organism-based
Enterobacter asburiae = assay: Antibacterial activity against Enterobacter asburiae KRICT3 at 1.6 mg/l after 24 hr; type: functional, organism-based
[6] = test system: Bursaphelenchus xylophilus; assay: Nematicidal activity against Bursaphelenchus xylophilus in pot-grown three-year-old trees of Pinus densiflora assessed as reduction of disease incidence at 10% treated 3 months before inoculation measured after 9 months by measuring dead trees; type: functional; design: scale not given: the % may be the effect or the level left
Ewingella americana = assay: Antibacterial activity against Ewingella americana KRICT5 at 1.6 mg/l after 24 hr; type: functional, organism-based
[7] = test system: Bursaphelenchus xylophilus; assay: Nematicidal activity against Bursaphelenchus xylophilus in pot-grown three-year-old trees of Pinus densiflora assessed as reduction of disease incidence at 3 mg/seedlings treated 7 days before inoculation measured after 1 month by measuring dead seedling under greenhouse condition; type: functional; design: scale not given: the % may be the effect or the level left
[8] = test system: Bursaphelenchus xylophilus; assay: as §1, with “3” for “3.6”; type: functional; design: scale not given: the % may be the effect or the level left
[9] = test system: Bursaphelenchus xylophilus; assay: as §1, with “10” for “3.6”; type: functional; design: scale not given: the % may be the effect or the level left
[10] = test system: Peribacillus frigoritolerans; assay: Antibacterial activity against [Brevibacterium] frigoritolerans KRICT2 at 1.6 mg/l after 24 hr; type: functional, organism-based
[11] = test system: Bursaphelenchus xylophilus; assay: Nematicidal activity against Bursaphelenchus xylophilus in pot-grown three-year-old trees of Pinus densiflora assessed as reduction of disease incidence at 30 mg/seedlings treated 7 days before inoculation measured after 1 month by measuring dead seedling under greenhouse condition; type: functional; design: scale not given: the % may be the effect or the level left
[12] = test system: Bursaphelenchus xylophilus; assay: Nematicidal activity against Bursaphelenchus xylophilus assessed as mortality at 10 mg/l after 48 hr; type: functional
[13] = test system: Bursaphelenchus xylophilus; assay: Nematicidal activity against Bursaphelenchus xylophilus in pot-grown three-year-old trees of Pinus densiflora assessed as reduction of disease incidence at 10% treated 3 months before inoculation measured after 9 months by measuring dead trees relative to control; type: functional; design: scale not given: the % may be the effect or the level left
[14] = test system: Bursaphelenchus xylophilus; assay: as §1, with “30” for “3.6”; type: functional; design: scale not given: the % may be the effect or the level left
[15] = test system: Bursaphelenchus xylophilus; assay: Nematicidal activity against Bursaphelenchus xylophilus in pot-grown three-year-old trees of Pinus densiflora assessed as reduction of disease incidence at 10 mg/seedlings treated 7 days before inoculation measured after 1 month by measuring dead seedling under greenhouse condition; type: functional; design: scale not given: the % may be the effect or the level left

SMILES | Activity [1] | Activity [2] | Activity [3] | Activity [4] | Activity [5] | Activity (Serratia marcescens) | Activity (Enterobacter asburiae) | Activity [6] | Activity (Ewingella americana) | Activity [7] | Activity [8] | Activity [9] | Activity [10] | Activity [11] | Activity [12] | Activity [13] | Activity [14] | Activity [15]
CC[C@H](C)[C@H]1O[C@]2(C=C[C@@H]1C)C[C@@H]1C[C@@H](C/C=C(\C)[C@@H](O[C@H]3C[C@H](OC)[C@@H](O[C@H]4C[C@H](OC)[C@@H](O)[C@H](C)O4)[C@H](C)O3)[C@@H](C)/C=C/C=C3\CO[C@@H]4[C@H](O)C(C)=C[C@@H](C(=O)O1)[C@]34O)O2.CO[C@H]1C[C@H](O[C@H]2[C@H](C)O[C@@H](O[C@@H]3/C(C)=C/C[C@@H]4C[C@@H](C[C@]5(C=C[C@H](C)[C@@H](C(C)C)O5)O4)OC(=O)[C@@H]4C=C(C)[C@@H](O)[C@H]5OC/C(=C\C=C\[C@@H]3C)[C@]54O)C[C@@H]2OC)O[C@@H](C)[C@@H]1O [ABAMECTIN] | 71% | 6.7% | 93% | 90% | 20% | – | – | – | – | – | – | – | – | – | – | – | – | –
CN(C)[C@@H]1C(O)=C(C(N)=O)C(=O)[C@@]2(O)C(O)=C3C(=O)c4c(O)cccc4[C@@](C)(O)[C@H]3[C@H](O)[C@@H]12 | – | – | – | – | – | Active | Active | – | – | – | – | – | – | – | – | – | – | –
CCn1cc(C(=O)O)c(=O)c2cc3c(cc21)OCO3 [OXOLINIC ACID] | – | – | – | – | – | Active | – | 23.3% | Active | 20% | 71% | 57% | Active | 30% | 22% | 74% | 57% | 30%

Reference: ChEMBL document CHEMBL3045013, “Suppression of pine wilt disease by an antibacterial agent, oxolinic acid” (2010)
